Results on six molecules are retold here after patent US5985879A, “Compounds useful for inhibition of farnesyl protein transferase” (Schering Corporation, priority 1997, dated 1999).

Experiment [1] concerns the target farnesyl protein transferase (H-ras) (Homo sapiens, UniProt P49354+P49356). The experiment in a line: FPT IC50 (H-ras), inhibition of farnesyl protein transferase, in vitro enzyme assay. The class given is biochemical. The protocol:
(§1) FPT IC50 (inhibition of farnesyl protein transferase, in vitro enzyme assay) and COS Cell IC50 (Cell-Based Assay) were determined following the assay procedures described in WO 95/10516, published Apr. 20, 1995. GGPT IC50 (inhibition of geranylgeranyl protein transferase, in vitro enzyme assay), Cell Mat Assay, and anti-tumor activity (in vivo anti-tumor studies) could be determined by the assay procedures described in WO 95/10516. The disclosure of WO 95/10516 is incorporated herein by reference thereto.

Experiment [2] addresses farnesyl protein transferase (K-ras) (Homo sapiens, UniProt P49354+P49356). The experiment is described as follows: FPT IC50 (K-ras), inhibition of farnesyl protein transferase, in vitro enzyme assay. The class given is biochemical. How it is done: as §1
Another experiment relates to COS Cell. The experiment in a line: COS Cell IC50 (Cell-Based Assay). As to conditions: COS cells. The protocol:
as §1

The test system of another experiment is Human tumor cells. The experiment is described as follows: Soft Agar Assay (anchorage-independent growth). It is filed as cell-based. As to conditions: incubated 10-16 days at 37° C. under 5% CO2, MTT stain. How it is done:
Anchorage-independent growth is a characteristic of tumorigenic cell lines. Human tumor cells are suspended in growth medium containing 0.3% agarose and an indicated concentration of a farnesyl transferase inhibitor. The solution is overlayed onto growth medium solidified with 0.6% agarose containing the same concentration of farnesyl transferase inhibitor as the top layer. After the top layer is solidified, plates are incubated for 10-16 days at 37° C. under 5% CO2 to allow colony outgrowth. After incubation, the colonies are stained by overlaying the agar with a solution of MTT (3-[4,5-dimethyl-thiazol-2-yl]-2,5-diphenyltetrazolium bromide, Thiazolyl blue) (1 mg/mL in PBS). Colonies can be counted and the IC50 's can be determined.

SMILES strings stand for the structures.

What is called IC50 is the concentration that inhibits the measured activity by half. Low values mean greater potency in that assay, high ones weaker potency in that assay. In turn, `O=C(CC1CCN(c2nnnn2-c2ccccc2)CC1)N1CCC([C@H]2c3ncc(Br)cc3CCc3cc(Cl)cc(Br)c32)CC1` [Formula 2.0] yielded an IC50 in experiment [1] of 31 nM. That is a double-digit nanomolar value.

Turning to `O=C(CC1CCN(c2nccs2)CC1)N1CCC([C@H]2c3ncc(Br)cc3CCc3cc(Cl)cc(Br)c32)CC1` [Formula 3.0], in experiment [1], the IC50 came out at 140 nM.

Turning to `O=C(CC1CCN(c2nc3ccccc3o2)CC1)N1CCC([C@H]2c3ncc(Br)cc3CCc3cc(Cl)cc(Br)c32)CC1` [Formula 4.0], the values for the IC50 (in experiment [1]; in experiment [2]; with COS Cell) were 16 nM, 91 nM and 120 nM, respectively.

`O=C(CC1CCN(c2ccccn2)CC1)N1CCC([C@H]2c3ncc(Br)cc3CCc3cc(Cl)cc(Br)c32)CC1` [Formula 5.0]: the IC50 is 10.6 nM in experiment [1], 29 nM in experiment [2], 39 nM with COS Cell and > 500 nM in the experiment with Human tumor cells.

Consider `O=C(CC1CCN(c2ncccn2)CC1)N1CCC([C@H]2c3ncc(Br)cc3CCc3cc(Cl)cc(Br)c32)CC1` [Formula 6.0], for which the results for the IC50 (in experiment [1]; in the experiment on COS Cell) were 20 nM and 68 nM, respectively.

Regarding `CC(=O)OC[C@H]1O[C@@H](N2CCC(CC(=O)N3CCC([C@H]4c5ncc(Br)cc5CCc5cc(Cl)cc(Br)c54)CC3)CC2)[C@H](OC(C)=O)[C@@H](OC(C)=O)[C@@H]1OC(C)=O` [Formula 9.3], the IC50 in experiment [1] was 4.6 nM; in experiment [2], 40.9 nM; in the experiment with COS Cell, 35 nM; with Human tumor cells it was 80 nM.
